# Experimental data as given in PMC6768323, “Adverse Maternal, Fetal, and Postnatal Effects of Hexafluoropropylene Oxide Dimer Acid (GenX) from Oral Gestational Exposure in Sprague-Dawley Rats” (Environmental Health Perspectives, 2019).
# Where “and” joins values, the source holds several entries; their conditions need not be identical. Equal entries are not always repeated.
# Experiments:
# [1] = tested on: pregnant Sprague-Dawley rats; assay: Maternal and fetal effects of GD14-18 oral dosing (weights, reproductive output); type: in vivo
# Method: (§1) A total of three blocks of 15 dams per block were dosed once daily from GD14–18 with either water vehicle (control) or HFPO-DA to evaluate fetal and maternal effects (Figure 1A). The first block of dams was dosed with control, 62.5, 125, 250, or 500mg/kg HFPO-DA ( n=3 dams for each). The second and third blocks of dams were dosed with control, 1, 3, 10, or 30mg/kg HFPO-DA ( n=3 per dose per block). Total sample sizes were n=9 for control, n=6 for 1, 3, 10, 30mg/kg , and n=3 for 62.5, 125, 250, and 500mg/kg HFPO-DA. In the first two blocks, spanning the entire dose range, we evaluated fetal testis testosterone production, fetal testis gene expression, fetal and maternal liver gene expression, fetal body weight, and maternal serum thyroid hormone and lipid concentrations. In the third block, encompassing the lower dose range utilized here, we collected fetal plasma for measuring HFPO-DA concentrations. Across all three blocks we evaluated maternal weight gain during dosing, reproductive output (number of fetuses and resorptions), maternal serum HFPO-DA concentration, and maternal liver weight at necropsy.
# (§2) For the first two blocks, spanning the full dose range, late gestation (GD18) dams were euthanized by decapitation at ∼2h after the final oral dose [ ∼0830–1000 hours Eastern Standard Time (EST)]. Trunk blood was collected and serum isolated via centrifugation ( 10,000×g for 15 min at 4°C) in vacutainer tubes, transferred to 1.5-mL microcentrifuge tubes and stored at −80°C . Dam liver weight was recorded and a sample of liver tissue was collected into a polypropylene microcentrifuge tube containing 500μL TRIzol Reagent (Invitrogen) on ice. Fetuses were removed and two randomly selected fetuses per litter were weighed. Fetal testes were collected from all male pups with a single testis from the first three males used for determination of ex vivo testosterone production and the remaining testes were homogenized and preserved in TRIzol Reagent for gene expression analysis. The liver was collected from a single, randomly selected fetus per dam/litter for gene expression analysis and transferred to a polypropylene microcentrifuge tube containing 500μL TRIzol Reagent (Invitrogen) on ice. Both dam and fetal liver samples were individually homogenized using a Bullet Blender (Next Advance) with 1-mm zirconium oxide beads, transferred to clean tubes, and stored at −80°C prior to RNA extraction (see below). Ex vivo fetal testis testosterone production was measured as previously reported ([Wilson et al. 2004b]) except the radioimmunoassay (RIA) utilized here was supplied by ALPCO (Catalog No. 72-TESTO-CT2, ALPCO). Briefly, one testis was isolated from each of three separate male fetuses in each litter and incubated in a humidified atmosphere at 37°C for 3 h in 500μL of M-199 media (phenol red–free; Hazelton Biologics, Inc.) supplemented with 10% dextran-coated charcoal-stripped fetal bovine serum (Hyclone Laboratories) in 24-well plates under gentle agitation. After incubation, media were removed and stored in siliconized microcentrifuge tubes at −80°C until RIA analyses, which were performed according to manufacturer specifications.
# For the third block, dosed with the lower dose range ( 1–30mg/kg HFPO-DA), late gestation (GD18) dams were euthanized by decapitation ∼2h after the final dose, liver weight was recorded, and trunk blood was collected for serum isolation. Serum was isolated from trunk blood via centrifugation ( 10,000×g; 15 min; 4°C) using Becton Dickinson vacutainer tubes and stored in 1.5-mL siliconized microcentrifuge tubes at −80°C for future analyses. Fetuses were removed and fetal blood was collected from the jugular vein from all fetuses within a litter using heparinized glass capillary tubes. Blood was expelled from capillary tubes using fine-tip disposable transfer pipets into a microcentrifuge tube forming a single composite sample per litter. […]
# [2] = tested on: PPAR signaling pathway genes, maternal liver; assay: Maternal liver (GD18) PPAR gene array, fold induction versus control; oral dosing GD14-18; rows per gene in dose order 1, 3, 10, 30, 62.5, 125, 250, 500 mg/kg/d; type: in vivo, Sprague-Dawley rats
# Method: as §1, §2
# Gene expression in fetal testes and fetal/maternal livers was assessed using reverse transcriptase real-time PCR of cDNA synthesized from RNA extracted from sample homogenates. RNA extraction was conducted according to TRIzol Reagent manufacturer specifications using chloroform and isopropanol. Following extraction, RNA was purified using the RNeasy Mini Kit (Catalog No. 74104; Qiagen). RNA concentration and purity (260:280 ratio ≥1.8 ) were determined with a NanoDrop 2000 spectrophotometer (Thermo Scientific). For the fetal testes, a 96-well gene array plate was previously custom designed to contain 89 target genes and 3 housekeeping genes, an intra-assay control, a genomic DNA control, a reverse transcriptase control, and a positive PCR control [see Table S1; SABioscience; ([Hannas et al. 2012])]. […]
# [3] = parameters: method as in DuPont 2017; conditions: ref DuPont 2017; cited from earlier work
compound,measurement,setting,value
"O=C(O)C(F)(OC(F)(F)C(F)(F)C(F)(F)F)C(F)(F)F (centres unmarked) [HFPO-DA, Hexafluoropropylene oxide dimer acid]","numbers of live pups, resorptions, fetal body weight compared with controls",[1]; 1-500 mg/kg,no significant differences
same,Dam BW GD18,[1]; 1-500 mg/kg/d,378.6 ± 19.1 g and 364.1 ± 15.6 g and 371.5 ± 11.4 g and 354.3 ± 12.4 g and 366.2 ± 9.9 g and 346.7 ± 5.5 g and 350.2 ± 6.0 g and 369.8 ± 15.1 g
same,No. fetuses,[1]; 1-500 mg/kg/d,12.3 ± 1.0 and 13.3 ± 0.6 and 13.2 ± 0.5 and 13.5 ± 0.4 and 12.7 ± 0.9 and 14.3 ± 0.3 and 13.7 ± 1.3 and 14.7 ± 0.3
same,maternal body weight gain compared with controls,[1]; GD14-18 dosing window,significantly less body weight gain at the 250- and 500-mg/kg dose levels
same,Dam liver wt,"[1]; GD18, 1-500 mg/kg/d",15.8 ± 0.7 g and 16.7 ± 1.1 g and 16.5 ± 0.5 g and 17.2 ± 0.5 g and 17.8 ± 0.7 g and 19.1 ± 0.6 g and 19.6 ± 0.3 g and 19.2 ± 0.6 g
same,Fetal BW,"[1]; GD18, 1-500 mg/kg/d",908.7 ± 27.0 mg and 816.7 ± 24.2 mg and 841.0 ± 38.4 mg and 842.2 ± 50.5 mg and 863.7 ± 31.7 mg and 841.8 ± 46.7 mg and 889.1 ± 26.9 mg and 808.2 ± 88.9 mg
same,Dam BW GD14,"[1]; dose order 1, 3, 10, 30, 62.5, 125, 250, 500 mg/kg/d",337.0 ± 12.9 g and 341.6 ± 14.1 g and 330.8 ± 13.4 g and 338.0 ± 11.5 g and 320.9 ± 8.7 g and 330.6 ± 8.8 g and 325.8 ± 3.7 g and 339.1 ± 10.5 g
same,dose with higher maternal liver weights,[1]; oral GD14-18,≥ 62.5 mg/kg
same,Acox3,[2]; dose order,1.3 fold and 0.9 fold and 1.2 fold and 1.1 fold and 1.0 fold
same,Acsl1,[2]; dose order,1.3 fold and 1.5 fold and 1.1 fold and 1.7 fold and 1.6 fold and 1.8 fold
same,Acsl4,[2]; dose order,1.0 fold and 0.7 fold and 0.9 fold and 1.3 fold and 1.2 fold
same,Angptl4,[2]; dose order,2.3 fold and 3.4 fold and 2.1 fold and 3.6 fold and 3.0 fold and 2.9 fold and 2.5 fold
same,Apoa1,[2]; dose order,0.9 fold and 1.0 fold and 0.7 fold
same,Apoe,[2]; dose order,1.2 fold and 0.8 fold and 0.9 fold and 0.7 fold
same,Cd36,[2]; dose order,0.8 fold and 1.2 fold and 0.9 fold and 1.0 fold and 1.1 fold
same,Clu,[2]; dose order,1.1 fold and 1.4 fold and 0.8 fold and 1.3 fold and 1.2 fold and 1.5 fold and 1.6 fold
same,Creb1,[2]; dose order,1.1 fold and 0.9 fold and 1.0 fold and 0.8 fold
same,Crebbp,[2]; dose order,1.3 fold and 0.9 fold and 1.0 fold
same,Dgat1,[2]; dose order,1.1 fold and 1.3 fold and 1.2 fold and 1.5 fold and 1.6 fold and 1.8 fold and 1.9 fold
same,Ep300,[2]; dose order,1.3 fold and 1.4 fold and 0.8 fold and 1.1 fold and 1.0 fold
same,Etfdh,[2]; dose order,1.2 fold and 1.6 fold and 1.4 fold and 1.5 fold
same,Fabp5,[2]; dose order,1.0 fold and 1.3 fold and 1.2 fold and 0.8 fold
same,Fabp7,[2]; dose order,2.0 fold and 1.1 fold and 1.9 fold and 1.8 fold and 1.3 fold and 1.7 fold
same,Gk,[2]; dose order,1.2 fold and 1.1 fold and 1.3 fold and 1.4 fold and 0.8 fold
same,Hif1a,[2]; dose order,1.2 fold and 1.0 fold and 1.1 fold and 1.3 fold
same,Hspd1,[2]; dose order,1.1 fold and 1.2 fold and 1.3 fold and 1.9 fold and 1.8 fold and 2.2 fold and 2.1 fold
same,Ilk,[2]; dose order,1.2 fold and 0.9 fold and 1.1 fold and 1.0 fold
same,Klf10,[2]; dose order,1.8 fold and 2.0 fold and 1.5 fold and 2.5 fold and 2.3 fold and 2.4 fold
same,Lpin1,[2]; dose order,1.2 fold and 1.4 fold and 0.8 fold and 1.1 fold and 1.0 fold and 0.9 fold
same,Med1,[2]; dose order,1.2 fold and 1.3 fold and 0.7 fold and 1.0 fold and 0.8 fold and 0.9 fold and 1.1 fold
same,Ncoa3,[2]; dose order,1.4 fold and 0.8 fold and 1.0 fold and 0.9 fold
same,Ncoa6,[2]; dose order,1.4 fold and 1.2 fold and 1.1 fold and 0.7 fold and 0.8 fold and 0.9 fold
same,Nr1h3,[2]; dose order,1.1 fold and 1.5 fold and 0.8 fold and 1.6 fold and 1.3 fold
same,Pdpk1,[2]; dose order,0.9 fold and 1.0 fold and 0.8 fold and 1.1 fold
same,Pltp,[2]; dose order,1.2 fold and 0.7 fold and 0.9 fold and 1.4 fold and 1.1 fold and 1.0 fold
same,Ppara,[2]; dose order,0.8 fold and 0.7 fold and 0.6 fold and 1.0 fold and 0.9 fold and 1.1 fold
same,Ppargc1b,[2]; dose order,1.1 fold and 1.3 fold and 0.9 fold and 0.8 fold and 0.7 fold
same,Pprc1,[2]; dose order,1.2 fold and 1.0 fold and 1.4 fold and 1.5 fold
same,Pten,[2]; dose order,0.8 fold and 1.1 fold and 0.9 fold and 1.0 fold
same,Pyy,[2]; dose order,1.6 fold and 1.3 fold and 1.1 fold and 1.2 fold and 2.0 fold and 2.1 fold and 1.8 fold
same,Rxra,[2]; dose order,1.2 fold and 1.4 fold and 0.7 fold and 1.0 fold and 1.1 fold
same,Rxrb,[2]; dose order,1.5 fold and 1.4 fold and 0.9 fold and 1.1 fold and 0.8 fold and 1.0 fold
same,Rxrg,[2]; dose order,1.5 fold and 1.6 fold and 1.1 fold and 1.7 fold and 1.3 fold
same,Sirt1,[2]; dose order,1.0 fold and 1.1 fold and 0.8 fold and 0.9 fold
same,Slc27a1,[2]; dose order,1.5 fold and 1.6 fold and 0.9 fold and 1.4 fold and 1.1 fold and 1.0 fold and 1.3 fold
same,Slc27a2,[2]; dose order,1.3 fold and 1.8 fold and 2.1 fold and 2.2 fold and 2.3 fold
same,Slc27a4,[2]; dose order,1.3 fold and 1.5 fold and 0.8 fold and 1.0 fold and 1.1 fold and 0.9 fold
same,Tgs1,[2]; dose order,0.8 fold and 0.9 fold and 0.7 fold and 1.1 fold
same,number of up-regulated genes shared by maternal and fetal livers,"[2]; rat, in vivo",16 genes
same,highest detected plasma concentration from a worker,[3],0.169 µg/mL
